For test [1], the target named is T1, Adenosine receptor A3 (Homo sapiens, UniProt P0DMS8).
T1 sequence (P0DMS8 whole entry): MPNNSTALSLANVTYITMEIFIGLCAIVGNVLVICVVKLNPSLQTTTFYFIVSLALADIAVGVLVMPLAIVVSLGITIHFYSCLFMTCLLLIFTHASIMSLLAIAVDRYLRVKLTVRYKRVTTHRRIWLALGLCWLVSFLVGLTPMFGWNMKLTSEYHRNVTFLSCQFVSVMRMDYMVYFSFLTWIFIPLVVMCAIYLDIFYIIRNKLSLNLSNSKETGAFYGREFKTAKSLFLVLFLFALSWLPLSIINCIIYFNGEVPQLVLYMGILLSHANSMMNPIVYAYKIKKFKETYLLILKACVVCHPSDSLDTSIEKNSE

In test [2] the target is T2, Alpha-2B adrenergic receptor (Homo sapiens, UniProt P18089).
T2 sequence (P18089 whole entry): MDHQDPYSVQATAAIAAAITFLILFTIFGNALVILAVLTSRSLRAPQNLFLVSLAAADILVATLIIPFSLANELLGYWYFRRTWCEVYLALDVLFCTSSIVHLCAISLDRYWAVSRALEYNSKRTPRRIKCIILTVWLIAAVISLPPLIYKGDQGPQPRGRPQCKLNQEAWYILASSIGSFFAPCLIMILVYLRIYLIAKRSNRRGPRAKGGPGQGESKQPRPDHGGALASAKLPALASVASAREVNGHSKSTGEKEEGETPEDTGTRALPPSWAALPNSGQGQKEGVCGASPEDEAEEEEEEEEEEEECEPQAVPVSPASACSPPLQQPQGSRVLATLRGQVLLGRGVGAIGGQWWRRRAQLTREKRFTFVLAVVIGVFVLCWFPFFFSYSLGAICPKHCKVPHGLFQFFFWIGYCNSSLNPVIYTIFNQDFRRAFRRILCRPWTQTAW

Test [3] deals with Vasopressin V2 receptor (Homo sapiens, UniProt P30518).
Test [4] has as its target Growth hormone secretagogue receptor type 1 (Homo sapiens, UniProt Q92847).
The target of test [5] is T3, 5-hydroxytryptamine receptor 1A (Homo sapiens, UniProt P08908).
T3 sequence (P08908 whole entry): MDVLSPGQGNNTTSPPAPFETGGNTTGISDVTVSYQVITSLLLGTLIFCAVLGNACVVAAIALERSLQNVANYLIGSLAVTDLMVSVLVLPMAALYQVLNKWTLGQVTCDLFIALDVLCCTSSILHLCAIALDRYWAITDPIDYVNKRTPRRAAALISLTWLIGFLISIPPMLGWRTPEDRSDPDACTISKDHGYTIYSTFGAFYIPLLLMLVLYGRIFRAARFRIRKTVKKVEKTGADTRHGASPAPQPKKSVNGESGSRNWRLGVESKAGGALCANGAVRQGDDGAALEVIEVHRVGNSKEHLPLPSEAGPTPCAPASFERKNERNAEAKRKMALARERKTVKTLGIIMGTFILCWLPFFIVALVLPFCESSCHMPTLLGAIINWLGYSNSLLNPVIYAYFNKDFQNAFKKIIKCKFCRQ
The format is functional, cell-based.

Test [6] deals with 5-hydroxytryptamine receptor 2A (Homo sapiens, UniProt P28223). The format is functional, cell-based.
Test [7] addresses Melanocortin receptor 3 (Homo sapiens, UniProt P41968).
In test [8] the target is T4, Progesterone receptor (Homo sapiens, UniProt P06401).
T4 sequence (P06401 whole entry): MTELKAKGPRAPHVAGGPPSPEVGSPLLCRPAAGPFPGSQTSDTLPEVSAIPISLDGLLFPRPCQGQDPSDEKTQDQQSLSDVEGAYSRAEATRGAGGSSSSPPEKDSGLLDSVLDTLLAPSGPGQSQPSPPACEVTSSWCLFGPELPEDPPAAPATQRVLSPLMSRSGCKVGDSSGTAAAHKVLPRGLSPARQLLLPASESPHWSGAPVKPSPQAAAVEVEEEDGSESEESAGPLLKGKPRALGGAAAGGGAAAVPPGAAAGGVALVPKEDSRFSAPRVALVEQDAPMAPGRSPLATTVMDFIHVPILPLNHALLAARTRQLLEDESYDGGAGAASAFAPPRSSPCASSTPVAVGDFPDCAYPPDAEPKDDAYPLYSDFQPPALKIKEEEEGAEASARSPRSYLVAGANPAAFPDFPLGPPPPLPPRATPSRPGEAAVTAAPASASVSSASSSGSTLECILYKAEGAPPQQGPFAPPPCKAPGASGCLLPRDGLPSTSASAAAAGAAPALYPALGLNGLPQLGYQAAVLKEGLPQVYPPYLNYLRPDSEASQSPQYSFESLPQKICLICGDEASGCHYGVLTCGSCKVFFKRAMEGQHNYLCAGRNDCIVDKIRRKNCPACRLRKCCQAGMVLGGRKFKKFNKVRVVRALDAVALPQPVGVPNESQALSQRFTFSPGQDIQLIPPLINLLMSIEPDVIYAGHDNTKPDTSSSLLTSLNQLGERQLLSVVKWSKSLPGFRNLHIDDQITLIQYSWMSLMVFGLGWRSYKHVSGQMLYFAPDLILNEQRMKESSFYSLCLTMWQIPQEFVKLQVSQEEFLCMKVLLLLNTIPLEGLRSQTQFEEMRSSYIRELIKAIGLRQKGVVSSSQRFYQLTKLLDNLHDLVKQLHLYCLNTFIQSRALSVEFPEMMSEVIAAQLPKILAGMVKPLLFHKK
The format is functional.

Test [9] addresses T5, Thromboxane A2 receptor (Homo sapiens, UniProt P21731).
T5 sequence (P21731 whole entry): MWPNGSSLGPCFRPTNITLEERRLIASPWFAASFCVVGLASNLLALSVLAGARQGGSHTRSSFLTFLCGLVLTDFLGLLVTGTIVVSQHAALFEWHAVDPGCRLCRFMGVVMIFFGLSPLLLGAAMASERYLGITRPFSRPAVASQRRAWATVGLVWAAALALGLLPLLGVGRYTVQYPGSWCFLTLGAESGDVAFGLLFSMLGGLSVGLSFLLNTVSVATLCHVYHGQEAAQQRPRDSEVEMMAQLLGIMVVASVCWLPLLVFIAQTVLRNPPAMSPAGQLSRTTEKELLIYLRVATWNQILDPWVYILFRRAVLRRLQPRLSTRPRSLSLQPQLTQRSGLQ

For test [10], the target named is Beta-2 adrenergic receptor (Homo sapiens, UniProt P07550).

From ChEMBL document CHEMBL5291721, “A preclinical secondary pharmacology resource illuminates target-adverse drug reaction associations of marketed drugs” (Nat Commun, 2023) come the findings set out here.

As usually defined, the AC50 is the concentration at which the activity in the assay is half-maximal.
Also: assay procedure not described here.

Sequence of Vasopressin V2 receptor (P30518 whole entry): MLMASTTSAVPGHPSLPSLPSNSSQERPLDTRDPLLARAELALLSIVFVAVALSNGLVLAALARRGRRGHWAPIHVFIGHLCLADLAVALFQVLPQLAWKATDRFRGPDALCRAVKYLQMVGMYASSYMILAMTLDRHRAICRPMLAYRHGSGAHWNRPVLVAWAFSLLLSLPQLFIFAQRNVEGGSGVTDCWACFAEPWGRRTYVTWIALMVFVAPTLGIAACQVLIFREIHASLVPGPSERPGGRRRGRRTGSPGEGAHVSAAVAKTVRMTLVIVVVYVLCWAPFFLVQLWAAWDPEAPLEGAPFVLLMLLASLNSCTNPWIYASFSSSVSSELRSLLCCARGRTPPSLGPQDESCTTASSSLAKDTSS
Sequence of Growth hormone secretagogue receptor type 1 (Q92847 whole entry): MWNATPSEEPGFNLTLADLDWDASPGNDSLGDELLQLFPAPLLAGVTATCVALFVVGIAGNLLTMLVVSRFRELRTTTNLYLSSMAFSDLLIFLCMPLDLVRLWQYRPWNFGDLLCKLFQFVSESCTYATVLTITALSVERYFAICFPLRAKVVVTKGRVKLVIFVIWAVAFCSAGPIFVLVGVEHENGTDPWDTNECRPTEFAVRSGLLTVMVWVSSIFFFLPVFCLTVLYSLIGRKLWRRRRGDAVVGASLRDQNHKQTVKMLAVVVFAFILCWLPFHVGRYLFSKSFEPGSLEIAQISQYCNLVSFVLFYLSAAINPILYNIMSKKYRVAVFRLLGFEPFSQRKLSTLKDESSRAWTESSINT
Sequence of 5-hydroxytryptamine receptor 2A (P28223 whole entry): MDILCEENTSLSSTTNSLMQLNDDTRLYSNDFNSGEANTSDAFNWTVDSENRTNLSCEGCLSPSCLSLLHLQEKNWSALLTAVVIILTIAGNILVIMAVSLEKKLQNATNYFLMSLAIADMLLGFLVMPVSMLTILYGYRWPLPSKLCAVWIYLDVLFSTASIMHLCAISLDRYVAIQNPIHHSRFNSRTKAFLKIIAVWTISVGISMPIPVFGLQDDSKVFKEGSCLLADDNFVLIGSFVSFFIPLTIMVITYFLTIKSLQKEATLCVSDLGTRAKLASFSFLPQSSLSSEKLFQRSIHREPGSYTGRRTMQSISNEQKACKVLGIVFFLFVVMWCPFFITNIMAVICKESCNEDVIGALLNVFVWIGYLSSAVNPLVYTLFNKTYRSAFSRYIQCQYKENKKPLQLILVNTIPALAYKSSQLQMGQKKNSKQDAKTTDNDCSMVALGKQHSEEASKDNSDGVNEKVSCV
Sequence of Melanocortin receptor 3 (P41968 whole entry): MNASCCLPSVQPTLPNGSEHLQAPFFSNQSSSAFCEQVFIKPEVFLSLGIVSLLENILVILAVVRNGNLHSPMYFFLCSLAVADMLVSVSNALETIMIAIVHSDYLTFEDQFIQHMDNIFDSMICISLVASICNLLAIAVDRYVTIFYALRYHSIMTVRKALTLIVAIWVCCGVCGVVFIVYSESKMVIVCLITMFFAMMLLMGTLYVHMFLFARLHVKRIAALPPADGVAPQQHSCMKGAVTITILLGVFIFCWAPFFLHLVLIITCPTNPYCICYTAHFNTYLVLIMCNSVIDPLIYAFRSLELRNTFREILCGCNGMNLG
Sequence of Beta-2 adrenergic receptor (P07550 whole entry): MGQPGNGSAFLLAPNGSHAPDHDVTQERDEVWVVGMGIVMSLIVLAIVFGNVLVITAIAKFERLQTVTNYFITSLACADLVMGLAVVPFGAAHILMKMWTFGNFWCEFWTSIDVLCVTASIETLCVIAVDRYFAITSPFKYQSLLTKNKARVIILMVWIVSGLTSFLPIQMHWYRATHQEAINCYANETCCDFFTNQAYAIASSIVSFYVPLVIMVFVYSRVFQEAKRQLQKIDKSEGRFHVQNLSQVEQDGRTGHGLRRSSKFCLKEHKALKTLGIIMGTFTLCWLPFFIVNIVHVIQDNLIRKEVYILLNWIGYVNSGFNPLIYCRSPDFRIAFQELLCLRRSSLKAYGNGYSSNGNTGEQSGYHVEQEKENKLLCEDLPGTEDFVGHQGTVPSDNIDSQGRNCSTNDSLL

Take `CCCCCCC(C)(C)c1cc(O)c2c(c1)OC(C)(C)C1CCC(=O)CC21` (configuration not stated) [NABILONE]: the concentration at half-maximal activity (AC50) is 9.1 µM in [1]; over 30 µM in [2]; over 30 µM in test [3]; over 30 µM in test [4]; over 30 µM in test [5]; over 30 µM in test [6]. In addition, the AC50 in [7] and in test [8] was over 30 µM each time.
On to `O=C1CN=C(c2ccccc2)c2cc(Cl)ccc2N1CC(F)(F)F` [HALAZEPAM], for which the AC50 is 26 µM in test [1]; over 30 µM in [2]; over 30 µM in test [3]; over 30 µM in [4]; over 30 µM in test [5]; over 30 µM in [6]. Besides, the AC50 in test [7] and in [8] was over 30 µM throughout.
With `CCCCC(C)(O)C/C=C/[C@H]1[C@H](O)CC(=O)[C@@H]1CCCCCCC(=O)OC` (some centres not stated) [MISOPROSTOL], the AC50 in test [1], in [2], in test [3], in [4], in [5] and in [6] was over 30 µM each time. The AC50 in test [7], in test [8] and in test [9] was over 30 µM throughout.
In the case of `Cc1c(Cl)cccc1Nc1ccccc1C(=O)O` [TOLFENAMIC ACID], the AC50 is 12 µM in test [1]; over 30 µM in test [2]; over 30 µM in test [3]; over 30 µM in test [4]; 22 µM in [5]; 15 µM in test [6]. The AC50 in test [7], in test [8] and in test [9] was over 30 µM in each case.
With `C=C1CC[C@@]2(O)[C@H]3Cc4ccc(O)c5c4[C@@]2(CCN3CC2CC2)[C@H]1O5`, the AC50 in test [1], in test [2], in [3], in test [4], in test [5] and in test [6] was over 30 µM in each case. Besides, the AC50 in [7], in [8] and in test [9] was over 30 µM each time.
As to `CCCCCOC(=O)Nc1nc(=O)n([C@@H]2O[C@H](C)[C@@H](O)[C@H]2O)cc1F` [CAPECITABINE], the AC50 in [1], in test [2], in test [3], in test [4], in test [5] and in test [6] was over 30 µM each time. Moreover, the AC50 in [7] and in test [8] was over 30 µM each time.
With `O=C(OCCN1CCOCC1)c1cccnc1Nc1cccc(C(F)(F)F)c1` [MORNIFLUMATE], the AC50 is over 30 µM in test [1]; over 30 µM in test [2]; over 30 µM in test [10]; over 30 µM in test [3]; over 30 µM in test [4]; 2.9 µM in test [6]. In addition, the AC50 in [7], in [8] and in [9] was over 30 µM throughout.
Take `C[C@H]1C[C@@H]2[C@H]([C@@H](O)C[C@@]3(C)[C@H]2CC[C@]3(O)C(=O)COC(=O)CCC(=O)O)[C@@]2(C)C=CC(=O)C=C12` [METHYLPREDNISOLONE HEMISUCCINATE]: the AC50 in test [1], in test [2], in test [3], in test [4], in test [5] and in test [6] was over 30 µM throughout. The AC50 in test [7] and in test [8] was over 30 µM in each case.
As to `COC(=O)[C@H]1[C@@H](OC(=O)c2ccccc2)C[C@@H]2CC[C@H]1N2C` [COCAINE], the AC50 in test [1], in [2], in test [10], in test [3], in test [4] and in [6] was over 30 µM each time. Further, the AC50 in [7], in test [8] and in [9] was over 30 µM each time.
